Measured values taken from US4782139A, “Selective chemical removal of a protein amino-terminal residue” (Eli Lilly and Company, priority 1986, dated 1988).
Residues, ends and D or L forms follow the SMILES beside them. No end group written: not given here.

What was measured:
[1] = Organic cleavage conditions: diketopiperazine formation and disappearance of starting peptide, reverse phase chromatography; format: physicochemical
Source text: […] A molecular sieves for one week. […] The rate of cleavage was monitored by appearance of methionyl-proline diketopiperazine formation and disappearance of starting peptide as measured in reverse phase chromatographic analysis. Chromatography was achieved using a 0.46×25 cm column of Ultrosphere C18 in 0.1% trifluoroacetic acid (TFA), using an acetonitrile gradient to effect elution. The reaction was stopped at each analysis time point by ten-fold dilution with 0.1% trifluoroacetic acid. The diketopiperazine peak was collected and its identity confirmed by amino acid and mass spectral analysis.

[2] = Protein stability under organic cleavage conditions, reverse phase HPLC; conditions: 40° C.; for Protein Stability, relative percent remaining: against an untreated external control
Procedure: Analysis of the products obtained via the foregoing cleavage methods upon a representative sampling of peptides and proteins was assessed by high performance anion exchange and reverse phase chromatography. Anion exchange chromatography was conducted on a Mono Q column in a 0.05M Tris, pH 8.0 buffer containing 30% acetonitrile. Elution was provided using a linear gradient of sodium chloride. Reverse phase analysis was performed on a Zorbax C8, 150Å pore size column using an acetonitrile gradient in 0.1M ammonium phosphate at 45° C., pH 7.0.

[3] = Protein stability under organic cleavage conditions, anion exchange HPLC; format: physicochemical; conditions: 40° C.
Procedure: Anion exchange chromatography was conducted on a Mono Q column in a 0.05M Tris, pH 8.0 buffer containing 30% acetonitrile. Elution was provided using a linear gradient of sodium chloride. Reverse phase analysis was performed on a Zorbax C8, 150Å pore size column using an acetonitrile gradient in 0.1M ammonium phosphate at 45° C., pH 7.0.

CSCC[C@H](N)C(=O)N1CCC[C@H]1C(=O)NCC(=O)NCC(N)=O [Met--Pro--Gly--Gly--NH2] (H-MPGG-NH2)
quantity of starting material remaining ([1]; 1 M HOAc/CH2 Cl2, 25° C., 0 h): 100% | quantity of starting material remaining ([1]; 1 M HOAc/CH2 Cl2, 25° C., 2 h): 104% | quantity of starting material remaining ([1]; 1 M HOAc/CH2 Cl2, 25° C., 4 h): 96% | quantity of starting material remaining ([1]; 1 M HOAc/CH2 Cl2, 25° C., 6 h): 99% | quantity of starting material remaining ([1]; 1 M HOAc/CH2 Cl2, 25° C., 24 h): 80% | quantity of starting material remaining ([1]; 1 M HOAc/CH3 CN, 25° C., 0 h): 100% | quantity of starting material remaining ([1]; 1 M HOAc/CH3 CN, 25° C., 2 h): 114% | quantity of starting material remaining ([1]; 1 M HOAc/CH3 CN, 25° C., 4 h): 105% | quantity of starting material remaining ([1]; 1 M HOAc/CH3 CN, 25° C., 6 h): 99% | quantity of starting material remaining ([1]; 1 M HOAc/CH3 CN, 25° C., 24 h): 66% | quantity of starting material remaining ([1]; 1 M HOAc/DMF, 25° C., 0 h): 100% | quantity of starting material remaining ([1]; 1 M HOAc/DMF, 25° C., 2 h): 88% | quantity of starting material remaining ([1]; 1 M HOAc/DMF, 25° C., 4 h): 71% | quantity of starting material remaining ([1]; 1 M HOAc/DMF, 25° C., 6 h): 57% | quantity of starting material remaining ([1]; 1 M HOAc/DMF, 25° C., 24 h): 11% | quantity of starting material remaining ([1]; 1 M HOAc/DMSO, determined at 40° C., 0 h): 100% | quantity of starting material remaining ([1]; 1 M HOAc/DMSO, determined at 40° C., 2 h): 73% | quantity of starting material remaining ([1]; 1 M HOAc/DMSO, determined at 40° C., 4 h): 56% | quantity of starting material remaining ([1]; 1 M HOAc/DMSO, determined at 40° C., 24 h): 6% | quantity of starting material remaining ([1]; 1 M HOAc/MeOH, 25° C., 0 h): 100% | quantity of starting material remaining ([1]; 1 M HOAc/MeOH, 25° C., 2 h): 101% | quantity of starting material remaining ([1]; 1 M HOAc/MeOH, 25° C., 4 h): 99% | quantity of starting material remaining ([1]; 1 M HOAc/MeOH, 25° C., 6 h): 99% | quantity of starting material remaining ([1]; 1 M HOAc/MeOH, 25° C., 24 h): 97% | quantity of starting material remaining ([1]; 1 M HOAc/nPrOH, 25° C., 2 h): 100% | quantity of starting material remaining ([1]; 1 M HOAc/nPrOH, 25° C., 4 h): 97% | quantity of starting material remaining ([1]; 1 M HOAc/nPrOH, 25° C., 6 h): 94% | quantity of starting material remaining ([1]; 1 M HOAc/nPrOH, 25° C., 24 h): 72%

APLEPEYPGDNATPEQMAQYAAELRRYINMLTRPRY-NH2 [bPP, bovine pancreatic polypeptide, reference compound]
Protein Stability, relative percent remaining ([2]; 1 M HOAc/DMF, 2 h): 42% | Protein Stability, relative percent remaining ([2]; 1 M HOAc/DMF, 24 h): 40% | Protein Stability, relative percent remaining ([2]; 1 M HOAc/DMF, 48 h): 32% | Protein Stability, relative percent remaining ([2]; 1 M HOAc/DMSO, 2 h): 52% | Protein Stability, relative percent remaining ([2]; 1 M HOAc/DMSO, 24 h): 90% | Protein Stability, relative percent remaining ([2]; 1 M HOAc/DMSO, 48 h): 86%

Proinsulin
Protein Stability, relative percent remaining ([2]; 1 M HOAc/DMF, 2 h): 86% | Protein Stability, relative percent remaining ([2]; 1 M HOAc/DMF, 24 h): 43% | Protein Stability, relative percent remaining ([2]; 1 M HOAc/DMF, 48 h): 30% | Protein Stability, relative percent remaining ([2]; 1 M HOAc/DMSO, 2 h): 97% | Protein Stability, relative percent remaining ([2]; 1 M HOAc/DMSO, 24 h): 70% | Protein Stability, relative percent remaining ([2]; 1 M HOAc/DMSO, 48 h): 86%

insulin Achain Ssulfonate [A(SO3^- )4, reference compound]
Protein Stability, relative percent remaining ([2]; 1 M HOAc/DMF, 2 h): 100% | Protein Stability, relative percent remaining ([2]; 1 M HOAc/DMF, 24 h): 58% | Protein Stability, relative percent remaining ([2]; 1 M HOAc/DMSO, 2 h): 100% | Protein Stability, relative percent remaining ([2]; 1 M HOAc/DMSO, 24 h): 100% | Protein Stability, relative percent remaining ([2]; 1 M HOAc/DMSO, 48 h): 96%

insulin Bchain Ssulfonate [B(SO3^- )2, reference compound]
Protein Stability, relative percent remaining ([2]; 1 M HOAc/DMF, 2 h): 97% | Protein Stability, relative percent remaining ([2]; 1 M HOAc/DMF, 24 h): 62% | Protein Stability, relative percent remaining ([2]; 1 M HOAc/DMSO, 2 h): 94% | Protein Stability, relative percent remaining ([2]; 1 M HOAc/DMSO, 24 h): 106%

methionyl human growth hormone
Stability, determined by anion exchange HPLC ([3]; 0.33 M HOAc/DMF, 2 h): 78 | Stability, determined by anion exchange HPLC ([3]; 0.33 M HOAc/DMF, 4 h): 68 | Stability, determined by anion exchange HPLC ([3]; 0.33 M HOAc/DMF, 24 h): 34 | Stability, determined by anion exchange HPLC ([3]; 0.33 M HOAc/DMSO, 2 h): 100 | Stability, determined by anion exchange HPLC ([3]; 0.33 M HOAc/DMSO, 4 h): 99 | Stability, determined by anion exchange HPLC ([3]; 0.33 M HOAc/DMSO, 24 h): 86 | Stability, determined by anion exchange HPLC ([3]; 0.33 M HOAc/NMP, 2 h): 90 | Stability, determined by anion exchange HPLC ([3]; 0.33 M HOAc/NMP, 4 h): 89 | Stability, determined by anion exchange HPLC ([3]; 0.33 M HOAc/NMP, 24 h): 75 | Stability, determined by reverse phase HPLC ([2]; 0.33 M HOAc/DMF, 2 h): 78 | Stability, determined by reverse phase HPLC ([2]; 0.33 M HOAc/DMF, 4 h): 65 | Stability, determined by reverse phase HPLC ([2]; 0.33 M HOAc/DMF, 24 h): 45 | Stability, determined by reverse phase HPLC ([2]; 0.33 M HOAc/DMSO, 2 h): 91 | Stability, determined by reverse phase HPLC ([2]; 0.33 M HOAc/DMSO, 4 h): 77 | Stability, determined by reverse phase HPLC ([2]; 0.33 M HOAc/DMSO, 24 h): 75 | Stability, determined by reverse phase HPLC ([2]; 0.33 M HOAc/NMP, 2 h): 85 | Stability, determined by reverse phase HPLC ([2]; 0.33 M HOAc/NMP, 4 h): 70 | Stability, determined by reverse phase HPLC ([2]; 0.33 M HOAc/NMP, 24 h): 77
